Source: ChEMBL document CHEMBL1201862, “PubChem BioAssay data set” (2004)
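Grown in 96-well plates, cells were treated for 48 hours with each compound at five concentrations. Insufficient inhibition: endpoint recorded as highest concentration tested. GI50: concentration for 50% inhibition of growth.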 Calls of active or inactive are those of the source. Cut-off read from the data, not from the text of the source: active = GI50 up to about 1.1 µM and inactive = higher.

Columns and labels:
Experiment in all cases: inhibition of tumour cell growth, NCI panel, 48 h
786-0 = system: 786-0
A498 = system: A498
A549 = system: A549
ACHN = system: ACHN
CAKI-1 = system: CAKI-1
CCRF-CEM = system: CCRF-CEM
COLO 205 = system: COLO 205
DLD-1 = system: DLD-1
DMS-114 = system: DMS-114
DMS-273 = system: DMS-273
EKVX = system: EKVX
HCC 2998 = system: HCC 2998
HCT-116 = system: HCT-116
HCT-15 = system: HCT-15
HL-60 = system: HL-60
HOP-18 = system: HOP-18
HOP-62 = system: HOP-62
HOP-92 = system: HOP-92
HT-29 = system: HT-29
IGROV-1 = system: IGROV-1
K562 = system: K562
KM-20L2 = system: KM-20L2
KM12 = system: KM12
LOX IMVI = system: LOX IMVI
LXFL 529 = system: LXFL 529
M14 = system: M14
M19-MEL = system: M19-MEL
MOLT-4 = system: MOLT-4
Malme-3M = system: Malme-3M
NCI-H226 = system: NCI-H226
NCI-H23 = system: NCI-H23
NCI-H460 = system: NCI-H460
NCI-H522 = system: NCI-H522
OVCAR-3 = system: OVCAR-3
OVCAR-4 = system: OVCAR-4
OVCAR-5 = system: OVCAR-5
OVCAR-8 = system: OVCAR-8
RXF 393 = system: RXF 393
SF-268 = system: SF-268
SF-295 = system: SF-295
SF-539 = system: SF-539
SK-MEL-28 = system: SK-MEL-28
SK-MEL-2 = system: SK-MEL-2
SK-MEL-5 = system: SK-MEL-5
SK-OV-3 = system: SK-OV-3
SN12C = system: SN12C
SNB-19 = system: SNB-19
SNB-75 = system: SNB-75
SNB-78 = system: SNB-78
SR = system: SR
SW-620 = system: SW-620
TK-10 = system: TK-10
U-251 = system: U-251
UACC-257 = system: UACC-257
UACC-62 = system: UACC-62
UO-31 = system: UO-31

SMILES: CN1C(=O)CC(c2cccc(C3CC(=O)N(C)C3=O)n2)C1=O (configuration not stated)
- GI50 (786-0): > 100 µM (inactive)
- GI50 (A498): > 100 µM (inactive)
- GI50 (A549): > 100 µM (inactive)
- GI50 (ACHN): > 100 µM (inactive)
- GI50 (CAKI-1): > 100 µM (inactive)
- GI50 (CCRF-CEM): > 100 µM (inactive)
- GI50 (COLO 205): > 100 µM (inactive)
- GI50 (DLD-1): > 100 µM (inactive)
- GI50 (DMS-114): > 100 µM (inactive)
- GI50 (DMS-273): > 100 µM (inactive)
- GI50 (EKVX): > 100 µM (inactive)
- GI50 (HCC 2998): > 100 µM (inactive)
- GI50 (HCT-116): > 100 µM (inactive)
- GI50 (HCT-15): > 100 µM
- GI50 (HL-60): > 100 µM (inactive)
- GI50 (HOP-18): > 100 µM (inactive)
- GI50 (HOP-62): > 100 µM (inactive)
- GI50 (HOP-92): > 100 µM (inactive)
- GI50 (HT-29): > 100 µM (inactive)
- GI50 (IGROV-1): > 100 µM (inactive)
- GI50 (K562): > 100 µM (inactive)
- GI50 (KM-20L2): > 100 µM (inactive)
- GI50 (KM12): > 100 µM (inactive)
- GI50 (LOX IMVI): > 100 µM (inactive)
- GI50 (LXFL 529): > 100 µM (inactive)
- GI50 (M14): > 100 µM (inactive)
- GI50 (M19-MEL): > 100 µM (inactive)
- GI50 (MOLT-4): > 100 µM (inactive)
- GI50 (Malme-3M): > 100 µM (inactive)
- GI50 (NCI-H226): > 100 µM (inactive)
- GI50 (NCI-H23): > 100 µM (inactive)
- GI50 (NCI-H460): > 100 µM (inactive)
- GI50 (NCI-H522): > 100 µM (inactive)
- GI50 (OVCAR-3): > 100 µM (inactive)
- GI50 (OVCAR-4): > 100 µM (inactive)
- GI50 (OVCAR-5): > 100 µM (inactive)
- GI50 (OVCAR-8): > 100 µM (inactive)
- GI50 (RXF 393): > 100 µM (inactive)
- GI50 (SF-268): > 100 µM (inactive)
- GI50 (SF-295): > 100 µM (inactive)
- GI50 (SF-539): > 100 µM (inactive)
- GI50 (SK-MEL-28): > 100 µM (inactive)
- GI50 (SK-MEL-2): > 100 µM (inactive)
- GI50 (SK-MEL-5): > 100 µM (inactive)
- GI50 (SK-OV-3): > 100 µM (inactive)
- GI50 (SN12C): > 100 µM (inactive)
- GI50 (SNB-19): > 100 µM (inactive)
- GI50 (SNB-75): > 100 µM (inactive)
- GI50 (SNB-78): > 100 µM (inactive)
- GI50 (SR): > 100 µM (inactive)
- GI50 (SW-620): > 100 µM (inactive)
- GI50 (TK-10): > 100 µM (inactive)
- GI50 (U-251): > 100 µM (inactive)
- GI50 (UACC-257): > 100 µM (inactive)
- GI50 (UACC-62): > 100 µM (inactive)
- GI50 (UO-31): > 100 µM (inactive)

SMILES: COC1CC(OC)C2OC(c3ccccc3)OCC2O1 (configuration not stated)
- GI50 (786-0): > 100 µM (inactive)
- GI50 (A549): > 100 µM (inactive)
- GI50 (ACHN): > 100 µM (inactive)
- GI50 (CCRF-CEM): > 100 µM (inactive)
- GI50 (DLD-1): > 100 µM (inactive)
- GI50 (EKVX): > 100 µM (inactive)
- GI50 (HCC 2998): > 100 µM (inactive)
- GI50 (HCT-116): > 100 µM (inactive)
- GI50 (HCT-15): > 100 µM
- GI50 (HL-60): > 100 µM (inactive)
- GI50 (HOP-18): > 100 µM (inactive)
- GI50 (HOP-62): > 100 µM (inactive)
- GI50 (HT-29): > 100 µM (inactive)
- GI50 (IGROV-1): > 100 µM (inactive)
- GI50 (K562): > 100 µM (inactive)
- GI50 (KM-20L2): > 100 µM (inactive)
- GI50 (KM12): > 100 µM (inactive)
- GI50 (LOX IMVI): > 100 µM (inactive)
- GI50 (LXFL 529): > 100 µM (inactive)
- GI50 (M14): > 100 µM (inactive)
- GI50 (M19-MEL): > 100 µM (inactive)
- GI50 (MOLT-4): > 100 µM (inactive)
- GI50 (Malme-3M): > 100 µM (inactive)
- GI50 (NCI-H23): > 100 µM (inactive)
- GI50 (NCI-H460): > 100 µM (inactive)
- GI50 (NCI-H522): > 100 µM (inactive)
- GI50 (OVCAR-3): > 100 µM (inactive)
- GI50 (OVCAR-5): > 100 µM (inactive)
- GI50 (OVCAR-8): > 100 µM (inactive)
- GI50 (RXF 393): > 100 µM (inactive)
- GI50 (SF-295): > 100 µM (inactive)
- GI50 (SF-539): > 100 µM (inactive)
- GI50 (SK-MEL-28): > 100 µM (inactive)
- GI50 (SK-MEL-2): > 100 µM (inactive)
- GI50 (SK-MEL-5): > 100 µM (inactive)
- GI50 (SK-OV-3): > 100 µM (inactive)
- GI50 (SN12C): > 100 µM (inactive)
- GI50 (SNB-75): > 100 µM (inactive)
- GI50 (SNB-78): > 100 µM (inactive)
- GI50 (SR): > 100 µM (inactive)
- GI50 (SW-620): > 100 µM (inactive)
- GI50 (TK-10): > 100 µM (inactive)
- GI50 (U-251): > 100 µM (inactive)
- GI50 (UACC-257): > 100 µM (inactive)
- GI50 (UACC-62): > 100 µM (inactive)
- GI50 (UO-31): > 100 µM (inactive)
